Source: patent US20170008876A1, “Metal Chelate Compounds for Binding to the Platelet Specific Glycoprotein IIb/IIIa” (BAYER PHARMA AKTIENGESELLSCHAFT, priority 2014, published 2017)
Where two headings read alike, the source gives them in different places.

Experiments:
[1] = system: thrombus; settings: 40 min after last injection; for Gadolinium concentration: 4 repeated doses of 1 μM Gadolinium/kg bw i.v.; for thrombus/blood ratio: total dose 4 μM Gadolinium/kg bw
Protocol: The specific binding of the compound described in Example 1 was investigated in cynomolgus monkey (female 3.0 kg bodyweight).
The monkey was anesthetized with a mixture of Xylazin (Rompun®, Bayer HealthCare, Leverkusen, Germany), 0.12 mL/Kg and Ketamine (Ketavet®, Pfizer) 0.12 mL/Kg b.w. i.m. While the investigation, small amounts of Xylazin/Ketamine (1+1) have been injected i.m. if required. The left common carotid artery was exposed 10 min with iron-III-chloride solution (10%). Following thrombus induction the monkey received 1 μmol Gadolinium/kg bodyweight (equals 0.125 μmol molecule/kg bodyweight) i.v. Afterwards, the right carotid artery was exposed 8 min with iron-III-chloride solution (10%) and the monkey received a repeated dose of 1 μmol Gadolinium/kg bodyweight iv.
After the first two contrast media applications the right carotid artery was exposed surgically and a polyethylene-tube ([…] Polyethylene Tubing, Clay Adams, PE50), which was roughened previously by sandpaper (600—CAMI Grit designation), was inserted into the vessel, advanced into the descending aorta and was left there for 30 minutes to allow for the development of a thrombus on the rough surface of the tube. The monkey received 1 μmol Gadolinium/kg bodyweight (equals 0.125 μmol molecule/kg bodyweight) i.v. 30 min and 90 min post catheterization. 40 min after the last contrast media application the animal was sacrificed using Pentobarbital (Narcoren). The gadolinium concentrations in blood, thombus of the left and right carotis, right carotis, left carotis, jugular vein and aorta were determined using an inductively coupled plasma mass spectrometry (ICP-MS Agilent 7500a).

[2] = biological target: human GPIIb/IIIa receptor (Homo sapiens, UniProt P05106+P08514); assay: biochemical
Sequence of human GPIIb/IIIa receptor (P08514 32-887 limits assumed): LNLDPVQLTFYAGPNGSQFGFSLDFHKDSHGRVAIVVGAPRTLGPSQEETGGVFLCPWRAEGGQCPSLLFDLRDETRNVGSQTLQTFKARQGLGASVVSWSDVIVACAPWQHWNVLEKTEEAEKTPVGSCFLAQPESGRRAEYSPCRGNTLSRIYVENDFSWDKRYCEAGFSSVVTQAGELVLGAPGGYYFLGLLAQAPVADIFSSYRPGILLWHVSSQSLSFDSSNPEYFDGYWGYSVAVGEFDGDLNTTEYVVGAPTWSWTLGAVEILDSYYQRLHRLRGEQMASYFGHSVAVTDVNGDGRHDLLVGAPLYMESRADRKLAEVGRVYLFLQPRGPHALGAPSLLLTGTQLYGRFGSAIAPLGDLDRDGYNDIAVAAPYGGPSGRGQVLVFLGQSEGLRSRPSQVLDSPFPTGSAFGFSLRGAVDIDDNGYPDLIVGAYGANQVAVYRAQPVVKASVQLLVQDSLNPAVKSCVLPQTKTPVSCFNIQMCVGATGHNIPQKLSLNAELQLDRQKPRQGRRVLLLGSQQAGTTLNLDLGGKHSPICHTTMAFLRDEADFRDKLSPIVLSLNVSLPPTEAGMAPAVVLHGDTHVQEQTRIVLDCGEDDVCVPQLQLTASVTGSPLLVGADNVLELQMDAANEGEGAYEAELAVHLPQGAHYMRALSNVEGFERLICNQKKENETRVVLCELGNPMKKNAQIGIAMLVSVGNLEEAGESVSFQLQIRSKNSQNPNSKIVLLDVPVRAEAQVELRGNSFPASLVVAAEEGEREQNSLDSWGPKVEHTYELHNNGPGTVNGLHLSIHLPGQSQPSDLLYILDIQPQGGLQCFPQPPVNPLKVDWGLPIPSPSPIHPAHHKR
Sequence of human GPIIb/IIIa receptor (P05106 27-788): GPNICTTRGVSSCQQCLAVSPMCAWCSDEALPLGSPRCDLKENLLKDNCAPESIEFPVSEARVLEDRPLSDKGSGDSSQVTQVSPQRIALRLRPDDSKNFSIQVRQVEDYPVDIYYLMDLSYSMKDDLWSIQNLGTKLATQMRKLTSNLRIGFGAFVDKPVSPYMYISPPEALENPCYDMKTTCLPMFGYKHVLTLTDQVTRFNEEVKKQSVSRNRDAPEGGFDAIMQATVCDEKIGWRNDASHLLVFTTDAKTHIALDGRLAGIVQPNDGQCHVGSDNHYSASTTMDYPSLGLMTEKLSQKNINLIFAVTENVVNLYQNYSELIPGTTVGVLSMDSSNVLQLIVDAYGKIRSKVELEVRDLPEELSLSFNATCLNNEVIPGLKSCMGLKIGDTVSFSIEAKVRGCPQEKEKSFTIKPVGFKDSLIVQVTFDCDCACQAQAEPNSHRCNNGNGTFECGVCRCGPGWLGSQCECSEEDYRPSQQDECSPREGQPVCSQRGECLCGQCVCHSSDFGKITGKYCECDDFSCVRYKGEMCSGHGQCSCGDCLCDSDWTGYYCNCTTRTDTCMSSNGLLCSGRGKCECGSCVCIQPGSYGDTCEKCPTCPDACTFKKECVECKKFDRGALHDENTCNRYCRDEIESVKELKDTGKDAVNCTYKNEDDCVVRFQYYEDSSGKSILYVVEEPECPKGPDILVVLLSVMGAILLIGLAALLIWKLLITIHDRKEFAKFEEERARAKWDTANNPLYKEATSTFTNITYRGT
Protocol: Affinity assay: In the first step human GPIIb/IIIa purified from human platelets was immobilized on a 96-well solid plate. After 48 hours the plates were washed and the unspecific binding sites were blocked with Roti®-Block. […] In the next step, the plates were simultaneously incubated with a tritium labeled known GPIIb/IIIa binder (^3H) mixed with increasing concentrations of the novel compounds (inhibitor). […] The fraction of tritiated compound (^3H), which is not displaced by inhibitor, was measured in a microplate scintillation counter. […]
The maximum value of tritiated reference compound was determined without addition of inhibitor (n=8). […]
After one hour the plate was washed three times with phosphate-buffered saline (200 μL per well, Dulbecco's Phosphate Buffered Saline (D-PBS (+)), GIBCO®, Invitrogen). […] After 15 min at room temperature the plates were measured at the microplate scintillation counter (TopCount NXT v2.13, Perkin Elmer, Packard Instrument Company).
In the first step human glycoprotein IIb/IIIa, which is purified from human platelets, was immobilized on a 96-well solid plate. […] The fraction of tritiated reference compound, which is not displaced by inhibitor, was measured at a microplate scintillation counter. […] By means of this assay the affinities (1050 values) could be determined.

[3] = system: human activated platelets; assay: Binding of compounds to human activated platelets (Gd by ICP-MS in pellet and supernatant); format: cell-based
Protocol: For each experiment fresh blood was taken from a volunteer using 10 mL citrate-tubes (Sarstedt S-Monovette 02.1067.001, 10 mL, Citrate 3.13%). The 10 mL citrate-tubes were carefully inverted 10 times to mix blood and anticoagulant. The tubes were stored in an incubator at a temperature of 37° C. until centrifugation (Heraeus miniTherm CTT with integrated rotation- and turning device, turning speed: 19 rotations per minute, Heraeus Instruments GmbH, Hanau/Germany).
For plasma preparation tube centrifugation was carried out for 15 minutes at 1811 g at room temperature (Eppendorf, Centrifuge 5810R). To produce platelet-rich plasma blood was centrifuged 15 minutes at 201 g at room temperature. The tubes were stood for 30 min at room temperature to get a better separation. The separated platelet-rich plasma was finally centrifuged for further 3 min at 453 g to remove the remaining erythrocytes. The platelet-rich plasma was activated using a final concentration of 5 μM Adenosindiphosphate (ADP, Sigma). The activated platelet-rich plasma was incubated 20 minutes […] with different concentrations of gadolinium-labeled compound and subsequently was centrifuged 3 minutes at 1360 g. 20 μL of supernatant was taken to determine the concentration (n=3). The pellet was resuspended and washed two times with at least 750 μL plasma and subsequently was redispered in 750 μL plasma and 50 μL calciumchloride (50 μL 2%).

[4] = system: in vitro platelet-rich thrombi; assay: Magnetic resonance imaging of in vitro platelet-rich thrombi; format: cell-based, human; settings: 20 min incubation, washed three times, 1.5 T 3D TSE
Protocol: Magnetic resonance imaging of in vitro platelet-rich thrombi and incubation solution (example 1) using a 3D turbo spin echo sequence (1.5 T, Siemens Avanto, small extremity coil, TR 1050 ms, TE 9.1 ms, 0.5×0.5×0.6 mm^3). In FIG. 2a an in vitro control thrombus without the addition of a contrast agent is shown. The signal intensity of the control thrombus is slightly higher than the surrounding medium but clearly lower than the signal of the in vitro thrombus which was incubated with Example 1 as depicted in FIG. 2b. In FIG. 2c the incubation solution with a final concentration of 10 μmol substance/L of example 1 in human plasma is represented. The signal intensity is higher than the surrounding plasma solutions in the in vitro platelet-rich thrombi 2a and 2b.
The in vitro thrombus in FIG. 2b is incubated with the solution which is depicted in FIG. 2c. After 20 min incubation period the thrombi was washed three times with plasma solution.
Magnetic resonance imaging of in vitro platelet-rich thrombi and incubation solution (Example 1) using a 3D turbo spin echo sequence (1.5 T, Siemens Avanto, small extremity coil, TR 1050 ms, TE 9.1 ms, 0.5×0.5×0.6 mm^3). In FIG. 3a an in vitro control thrombus without the addition of a contrast agent is shown. […]

[5] = incubation concentration 1 μM molecule, incubation time 3 min
[6] = incubation concentration 1 μM molecule, incubation time 20 min
[7] = incubation concentration 10 μM molecule, incubation time 20 min

## CC(C(=O)NCC(=O)NCC(NC(=O)CNC(=O)C(C)N1CCN(CC(=O)O)CCN(CC(=O)O)CCN(CC(=O)O)CC1)C(=O)NCC(NC(=O)C(CNC(=O)CNC(=O)C(C)N1CCN(CC(=O)O)CCN(CC(=O)O)CCN(CC(=O)O)CC1)NC(=O)CNC(=O)C(C)N1CCN(CC(=O)O)CCN(CC(=O)O)CCN(CC(=O)O)CC1)C(=O)NCC(NC(=O)C(CNC(=O)C(CNC(=O)CNC(=O)C(C)N1CCN(CC(=O)O)CCN(CC(=O)O)CCN(CC(=O)O)CC1)NC(=O)CNC(=O)C(C)N1CCN(CC(=O)O)CCN(CC(=O)O)CCN(CC(=O)O)CC1)NC(=O)C(CNC(=O)CNC(=O)C(C)N1CCN(CC(=O)O)CCN(CC(=O)O)CCN(CC(=O)O)CC1)NC(=O)CNC(=O)C(C)N1CCN(CC(=O)O)CCN(CC(=O)O)CCN(CC(=O)O)CC1)C(=O)NCCCCc1cccc(C#Cc2cncc([C@H](CC(=O)O)NC(=O)[C@@H]3CCCN(C(=O)CCC4CCNCC4)C3)c2)c1)N1CCN(CC(=O)O)CCN(CC(=O)O)CCN(CC(=O)O)CC1 (stereo partly drawn) [Example 1, Octagadolinium 2,3-bis-{[2,3-bis({2,3-bis[(N-{2-[4,7,10-tris(carboxylatomethyl)-1,4,7,10-tetraazacyclododecan-1-yl]propanoyl}glycyl)amino]propanoyl}amino)propanoyl]amino}-N-(4-{3-[(5-{(1S)-2-carboxy-1-[({(3R)-1-[3-(piperidin-4-yl)propanoyl]piperidin-3-yl}carbonyl)amino]ethyl}pyridin-3-yl)ethynyl]phenyl}butyl)propanamide]
[1]; blood
  Gadolinium concentration: 3.3 ± 0.7 (n = 5) μM Gd
[1]; left carotis
  Gadolinium concentration: 9.4 ± 0.4 (n = 4) μM Gd
[1]; right carotis
  Gadolinium concentration: 4.3 ± 0.7 (n = 4) μM Gd
[1]; right jugular vein
  Gadolinium concentration: 4.0 μM Gd
[1]; thrombus left carotis
  Gadolinium concentration: 29.3 μM Gd
  thrombus/blood ratio: 8.9
[1]; thrombus right carotis
  Gadolinium concentration: 41.0 μM Gd
  thrombus/blood ratio: 12.4
[2]
  IC50: 40 nM
[3]; incubation concentration 0.1 μM molecule, incubation time 20 min
  Concentration within platelet pellet: 28.2 ± 1.8 μM Gd
[3]; [5]
  Concentration within platelet pellet: 32.7 ± 7.8 μM Gd
  pellet/supernatant: 131 ± 36
[3]; [6]
  Concentration within platelet pellet: 28.8 ± 2.2 μM Gd
  pellet/supernatant: 108 ± 18
[3]; [7]
  Concentration within platelet pellet: 35.9 ± 1.6 μM Gd
  pellet/supernatant: 81 ± 5
[4]; 0.1 μmol substance/L (0.8 μmol Gd/L) in human plasma
  MRI signal intensity of incubated in vitro thrombus versus control thrombus: clearly higher signal than the control thrombi
[4]; 10 μmol substance/L in human plasma
  MRI signal intensity of incubated in vitro thrombus versus control thrombus: clearly higher signal than the control thrombi
